What was measured:
[1] = test system: citrated human plasma (aPTT, coagulation); test: aPTT (activated partial thromboplastin time) Test; assay type: biochemical; settings: concentration which leads to a coagulation time double the control value, 37° C.
Description: aPTT (activated partial thromboplastin time) Test (see Walenga et al., CRC Critical Reviews in Laboratory Sciences 22 (4) 361-389 (1986)): 100 μl of citrated human plasma, which contains various concentrations of test compound, is mixed at 37° C. for 8 minutes with 100μ of Activated Thrombofax (ellagic acid as contact activator and bovine cephalin as platelet lipid substitute). 100 μl of pre-warmed 25 mM calcium chloride solution are then added and the coagultion time is measured in a Fibrometer Coagulation Timer.
(§1) The activity of the test compound is given as the IC50 which is the concentration [μg/ml] which leads to a coagulation time which is double the control value.

[2] = test system: Factor Xa; test: anti-Xa Clotting Assay; assay type: biochemical; settings: concentration which leads to a coagulation time double the control value; citrated plasma, 37° C.
Description: anti-Xa Clotting Assay: 25 μl of citrated plasma having various concentrations of test compound are mixed with 75 μl of Factor Xa (the activated blood coagulation factor X) diluted 1:100 with 0.63% citrated buffer (pH 7.3) which contains 41 mM imidazole, 82 mM NaCl and 0.1% albumin. After warming to 37° C. for 2 minutes 200 μl of a 1:1 mixture of Factor X Deficient Plasma and Platelet Substitute are added and the mixture is incubated at 37° C. for 20 seconds. After the addition of 100 μl of prewarmed 50 mM calcium chloride solution the coagulation time is measured in a Fibrometer.
as §1

[3] = test system: thrombin (IIa); test: Inhibition of Thrombin in the Chromogenic Substrate Assay; assay type: biochemical; settings: amidolytic activity of thrombin reduced by 50% vs plasma control; anti-thrombin III, pH 8.4
Description: Inhibition of Thrombin or Factor Xa in the Chromogenic Substrate Assay (Teien et al., Thrombosis Research 10, 399-410 (1977)): The determination was effected in a Cobas-Bio centrifugal automatic spectrophotometer. The buffer solution used consisted of 50 mM Tris buffer, 180 mM NaCl, 7.5 mM EDTA Na2, 1% PEG 6000 (a polyethylene glycol of mol. weight 6000) and 0.02% Tween 80 (a polyoxyethylene sorbitanmonooleate), pH 8.4. The test solution consisted of 50 μl of buffer, 30 μl of anti-thrombin III (1 U/ml), and 20 μl of plasma which contained various concentrations of test compounds. 30 μl of sample solution and 20 μl of water with 180 μl of thrombin were added to the test cuvette in the automatic analyzer. After incubation at 37° C. for 240 seconds 60 μl of the p-nitranilide, H-D-Phe-Pip-Arg-NH.pNA, (0.75 mM in water) and 20 μl of water were added. The liberation of pNA (p-nitroaniline) was followed during 60 seconds at 405 nm in 10 second intervals in comparison to water as the blank. The inhibitory activity is given as the IC50 which is the concentration [μg/ml] at which the amidolytic activity of thrombin is reduced by 50% in comparison to the plasma control value.

[4] = test system: Factor Xa; test: Inhibition of Factor Xa in the Chromogenic Substrate Assay; assay type: biochemical; settings: Factor Xa 2.8 nkat/ml, Bz-CO-Ile-Glu-Arg-NH.pNA
[5] = test system: Swiss 3T3 mouse fibroblastoid cells; test: anti-proliferative activity, Swiss 3T3 cells; assay type: cell-based; settings: net proliferation, cells collected on the 4th day, 10% calf serum
Description: (§2) Cells of different origin (Swiss 3T3 mouse fibroblastoid cells, HSMC: human smooth muscle cells and endothelial cells, both isolated from human umbilical cord veins) in RPMI 1640 medium containing 10% calf serum (Swiss 3T3 cells), 15% fetal calf serum (HSMC) or 15% fetal calf serum plus 300 μg/ml of endothelial cell growth supplement (endothelial cells) were cultivated at 37° C. in water-saturated air/5% Co2. Confluent cultures were then washed once with HBSS, removed with 0.05% trypsin/0.02%EDTA and collected by centrifugation. The cells were applied to cell culture plates with a density of 5000 cells/culture and the test compound was added one hour later. The cells were then incubated at 37° C. in air/5% CO2 and collected on the 4th day (Swiss 3T3) and on the 7th day (HSMC and endothelial cells). In order to determine th number of cells, these were washed once with HBSS and adhering cells were incubated for 10 minutes at 37° C. with 0.5 ml of trypsin/EDTA solution for separation. 0.5 ml of formol solution (0.5% paraformaldehyde, 0.145M NaCl, 1.3 mM EDTA) was added to each culture in order to fix the cells. […] The number of cells was determined with a Coulter counter. The inhibitory action by the test compounds was determined as follows: [formula] with the net proliferation being the number of cells at the end of the test minus the number of cells on day 1 (=24 hour after inoculation). […]

[6] = test system: HSMC: human smooth muscle cells; test: anti-proliferative activity, human smooth muscle cells; assay type: cell-based; settings: net proliferation, cells collected on the 7th day, 15% fetal calf serum
Description: as §2

[7] = test system: bloody lesions of the mucous membrane of the stomach; test: mucosa-protective properties (ethanol-induced stomach lesions); assay type: in vivo; settings: 30 mg/kg oral, 30 minutes prior to ethanol, rat, vs control group
Description: The test procedure described hereinafter can be used to determine the mucosa-protective properties:
Oral administration of absolute ethanol to male rats in a dosage of 1 ml per rat leads within 1 hour to bloody lesions of the mucous membrane of the stomach. Various dosages of the substances to be tested (suspended in 0.125% carboxymethylcellulose) or the vehicle alone (control) are administered orally to the rats (1 ml per rat) 30 minutes prior to the treatment with ethanol. One hour after the administration of the ethanol the animals are killed, their stomachs are investigated for the presence of lesions and the number and the total extent of such lesions are determined.

[8] = test system: mouse; test: acute toxicity determination in the mouse; assay type: in vivo
Description: In an acute toxicity determination in the mouse the compound of Example 1 was still not lethal after the intravenous application of 500 mg/kg or after the subcutaneous application of 4000 mg/kg.

Row | Substance | Coagulation inhibition IC50, aPTT [1] [µg/mL] | Coagulation inhibition IC50, Xa [2] [µg/mL] | Chromogenic Substrate (amidolytic activity) IC50, IIa [3] [µg/mL] | Chromogenic Substrate (amidolytic activity) IC50, Xa [4] [µg/mL] | IC50 Swiss 3T3 [5] [µg/mL] | IC50 HSCM [6] [µg/mL] | reduction of the number of lesions [7] [%] | lethal dose (not lethal after), intravenous ([8]; intravenous) [mg/kg] | lethal dose (not lethal after), subcutaneous ([8]; subcutaneous) [mg/kg]
1 | Heparin [reference compound] | 1.2 | 0.6 | 1.9 | 2.7 | 35 | 45 |  |  | 
2 | trestatin A sulfate sodium salt [Example 1] | 7 | > 30 | > 1000 | 550 | 30 | 20 | 28 | > 500 | > 4000

From patent US4885361A, “Sulfated oligosaccharides” (Hoffmann-La Roche Inc., priority 1987, dated 1989)
